Data: patent publication US20220251036A1, “DIFLUOROHALOALLYLAMINE SULFONE DERIVATIVE INHIBITORS OF LYSYL OXIDASES, METHODS OF PREPARATION, AND USES THEREOF” (PHARMAXIS LTD., priority 2019, published 2022)
Like-named read-outs stand apart in the source and are kept apart here.

Legend:
Type in all cases: biochemical
Bovine LOX = target: T1, Bovine LOX (Bos taurus, UniProt P33072); experiment: LOX inhibition, Amplex Red oxidation assay
T1 sequence (P33072 170-418): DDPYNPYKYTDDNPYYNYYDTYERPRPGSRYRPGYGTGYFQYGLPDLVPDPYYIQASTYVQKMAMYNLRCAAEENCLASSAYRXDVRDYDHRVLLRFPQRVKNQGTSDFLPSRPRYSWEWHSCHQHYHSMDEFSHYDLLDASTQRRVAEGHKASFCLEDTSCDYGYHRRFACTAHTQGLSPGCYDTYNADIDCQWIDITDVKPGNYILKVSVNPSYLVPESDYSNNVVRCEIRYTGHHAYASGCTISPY
Description: (§1) LOX and LOXL protein family members can be acquired as recombinant active proteins from commercial sources, or extracted from animal tissues like bovine aorta, tendons, pig skin; or prepared from cell cultures. […] The assay was developed using either 384 or 96 well format. Briefly, in a standard black, clear bottom 384 well plate assay 25 μL of a dilution of any of the isoenzymes and orthologues in 1.2 M urea, 50 mM sodium borate buffer (pH 8.2) were added into each well in the presence of 1 μM mofegiline and 0.5 mM pargyline (to inhibit SSAO and MAO-B and MAO-A, respectively; not necessary if the enzyme is from a recombinant or purified form). Test compounds were dissolved in DMSO and tested in a Concentration Response Curve (CRC) with 11 data points, typically in the micromolar or nanomolar range after incubation with the enzyme for 30 min at 37° C. 25 μL of a reaction mixture containing twice the KM concentration of putrescine (Sigma Aldrich, e.g. 20 mM for LOX and LOXL1 or 10 mM for LOXL2 and 4 mM for LOXL3 and LOXL4), 120 μM Amplex Red (Sigma Aldrich) and 1.5 U/mL horseradish peroxidase (Sigma Aldrich) prepared in 1.2 M urea, 50 mM sodium borate buffer (pH 8.2) were then added to the corresponding wells. The above volumes were doubled in the case of 96 wells plate. The fluorescence (RFU) was read every 2.5 min for 30 min at […] 37° C., excitation 565 nm and emission 590 (Optima; BMG labtech). The slope of the kinetics for each well was calculated using MARS data analysis software (BMG labtech) and this value was used to deduce the IC50 value (Dotmatics). The ability of the inventive compounds to inhibit the amine oxidase activity of LOX and other family members is shown in Table 4.

Human recombinant LOXL2 = target: T2, Human recombinant LOXL2 (Homo sapiens, UniProt Q9Y4K0); experiment: LOXL2 inhibition, Amplex Red oxidation assay
T2 sequence (Q9Y4K0 26-774): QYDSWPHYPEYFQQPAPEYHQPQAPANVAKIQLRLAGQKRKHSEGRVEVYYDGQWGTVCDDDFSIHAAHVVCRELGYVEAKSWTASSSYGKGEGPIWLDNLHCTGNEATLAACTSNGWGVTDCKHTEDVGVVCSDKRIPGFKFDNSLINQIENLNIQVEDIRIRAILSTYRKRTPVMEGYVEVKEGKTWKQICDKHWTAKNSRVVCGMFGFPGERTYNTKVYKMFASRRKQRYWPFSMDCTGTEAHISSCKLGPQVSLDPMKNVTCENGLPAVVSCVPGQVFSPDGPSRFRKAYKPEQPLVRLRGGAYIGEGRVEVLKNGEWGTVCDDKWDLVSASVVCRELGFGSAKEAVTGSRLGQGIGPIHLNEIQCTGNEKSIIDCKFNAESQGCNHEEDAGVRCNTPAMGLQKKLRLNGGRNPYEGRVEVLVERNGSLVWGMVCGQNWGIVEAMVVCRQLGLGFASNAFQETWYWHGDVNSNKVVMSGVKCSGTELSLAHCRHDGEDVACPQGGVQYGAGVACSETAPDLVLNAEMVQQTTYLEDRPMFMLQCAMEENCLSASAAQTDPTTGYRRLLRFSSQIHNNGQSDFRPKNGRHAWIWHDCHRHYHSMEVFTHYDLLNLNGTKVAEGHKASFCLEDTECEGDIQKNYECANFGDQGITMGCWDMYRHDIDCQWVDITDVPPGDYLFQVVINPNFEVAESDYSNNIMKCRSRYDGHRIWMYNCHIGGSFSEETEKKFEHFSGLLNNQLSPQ
Description: as §1

Human recombinant LOXL4 = target: T3, Human recombinant LOXL4 (Homo sapiens, UniProt Q96JB6); experiment: LOXL4 inhibition, Amplex Red oxidation assay
T3 sequence (Q96JB6 25-756): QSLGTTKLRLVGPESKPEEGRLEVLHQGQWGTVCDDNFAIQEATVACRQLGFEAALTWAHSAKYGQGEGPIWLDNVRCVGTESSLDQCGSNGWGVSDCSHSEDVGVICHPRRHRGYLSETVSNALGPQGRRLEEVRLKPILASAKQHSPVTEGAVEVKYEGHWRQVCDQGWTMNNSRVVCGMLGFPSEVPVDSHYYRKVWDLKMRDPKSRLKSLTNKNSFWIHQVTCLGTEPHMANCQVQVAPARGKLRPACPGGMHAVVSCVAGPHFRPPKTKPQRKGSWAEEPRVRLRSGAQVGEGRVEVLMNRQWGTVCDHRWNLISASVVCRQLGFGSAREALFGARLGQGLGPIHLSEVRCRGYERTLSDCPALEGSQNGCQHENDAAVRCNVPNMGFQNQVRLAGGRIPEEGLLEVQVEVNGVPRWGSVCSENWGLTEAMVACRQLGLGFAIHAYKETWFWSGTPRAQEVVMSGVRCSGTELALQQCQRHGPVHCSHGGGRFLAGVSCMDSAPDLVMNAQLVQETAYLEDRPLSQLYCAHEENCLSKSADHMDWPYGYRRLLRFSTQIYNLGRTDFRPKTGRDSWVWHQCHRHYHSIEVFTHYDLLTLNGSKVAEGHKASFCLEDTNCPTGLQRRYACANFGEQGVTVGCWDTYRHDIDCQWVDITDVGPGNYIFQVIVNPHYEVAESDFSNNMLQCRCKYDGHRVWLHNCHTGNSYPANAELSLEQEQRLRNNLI
Description: as §1

[1] = incubation with enzyme 30 min at 37° C, read-out: Bovine LOX Activity IC50
[2] = incubation with enzyme 30 min at 37° C, read-out: Human recombinant LOXL2 Activity IC50
[3] = incubation with enzyme 30 min at 37° C, read-out: Human recombinant LOXL4 Activity IC50

Structure (SMILES)	IC50 (Bovine LOX; [1]) [nM]	IC50 (Human recombinant LOXL2; [2]) [nM]	IC50 (Human recombinant LOXL4; [3]) [nM]	IC50 (Bovine LOX) [nM]	IC50 (Human recombinant LOXL2) [nM]	IC50 (Human recombinant LOXL4) [nM]
N#CCCN [BAPN, β-aminopropionitrile, reference compound]	2200	400	300			
NC/C=C(\F)C(F)(F)S(=O)(=O)c1ccccc1 [Compound 1, (Z)-3,4,4-trifluoro-4-(phenylsulfonyl)but-2-en-1-amine]				3700	400	300
NC/C=C(\F)C(F)(F)S(=O)(=O)c1cccc2cccnc12 [Compound 2, (Z)-3,4,4-trifluoro-4-(quinolin-8-ylsulfonyl)but-2-en-1-amine]	8000	1800	600			
CNc1ccccc1S(=O)(=O)C(F)(F)/C(F)=C/CN [Compound 4, (Z)-2-((4-amino-1,1,2-trifluorobut-2-en-yl)sulfony1)-N-methylaniline]	4300	1000	700			
Cc1ccccc1S(=O)(=O)C(F)(F)/C(F)=C/CN [Compound 5, (Z)-3,4,4-trifluoro-4-(o-tolylsulfonyl)but-2-en-1-amine]	3800	500				
Cc1ccc(S(=O)(=O)C(F)(F)/C(F)=C/CN)cc1 [Compound 6, (Z)-3,4,4-trifluoro-4-tosylbut-2-en-1-amine]	3500	500	300			
NC/C=C(\F)C(F)(F)S(=O)(=O)Cc1ccccc1 [Compound 8, (Z)-4-(benzylsulfony1)-3,4,4-trifluorobut-2-en-1-amine]	2500	300	100			
NC/C=C(\F)C(F)(F)[S+]([O-])c1ccccc1 (centres unmarked) [Compound 9, (Z)-3,4,4-trifluoro-4-(phenylsulfinyl)but-2-en-1-amine]	6500	1400	1100			
CS(=O)(=O)c1ccc(COc2ccccc2S(=O)(=O)C(F)(F)/C(F)=C/CN)cc1 [Compound 10, (Z)-3,4,4-trifluoro-4-((2-((4-(methylsulfonyl)benzyl)oxy)phenyl)sulfonyl) but-2-en-1-amine]	2700	100	100			
COc1cccc(S(=O)(=O)C(F)(F)/C(F)=C/CN)c1 [Compound 12, (Z)-3,4,4-trifluoro-4-((3-methoxyphenyl)sulfonyl)but-2-en-1-amine]	5100	600	300			
NC/C=C(\F)C(F)(F)S(=O)(=O)c1cccs1 [Compound 14, (Z)-3,4,4-trifluoro-4-(thiophen-2-ylsulfonyl)but-2-en-1-amine]	4500	300	200			
CS(=O)(=O)c1cccc(CS(=O)(=O)C(F)(F)/C(F)=C/CN)c1 [Compound 17, (Z)-3,4,4-trifluoro-4-((3-(methylsulfonyl)benzyl)sulfonyl)but-2-en-1-amine]	3500	400	200			
NC/C=C(\F)C(F)(F)S(=O)(=O)C1CCCC1 [Compound 19, (Z)-4-(cyclopentylsulfony1)-3,4,4-trifluorobut-2-en-1-amine]	2500	500	500			
